Source: patent publication US10689395B2, “Tricyclic fused pyridin-2-one derivatives and their use as BRD4 inhibitors” (JUBILANT BIOSYS LIMITED, priority 2015, dated 2020)
Like-named read-outs stand apart in the source and are kept apart here.

Tests used:
BRD4-BD1 = BRD4-BD1 (Homo sapiens (Human), UniProt O60885); assay: BRD4 AlphaLISA (Perkin Elmer); type: binding; conditions: 5 nM BRD4-BD1, 12 nM biotinylated substrate, read-out: BRD4_BD1 IC50_μM
Description: BRD4 AlphaLISA (Perkin Elmer)
Compounds were diluted by step-down dilution method (final concentration of DMSO was 1%) and added to the wells of a 384 well opti plate at desired concentrations. 5 nM BDR4-BD1 enzyme (produced in-house) and 12 nM of biotinylated substrate were added to the wells, covered and incubated at room temperature (RT) for 1 h. At the end of 1 h 250 ng of GSH acceptor beads were added to the well and incubated for 1 h at RT; then 500 ng of streptavidin donor beads were added and incubated again for 1 h at RT. Plates were read in a Pherastar reader at 680 nm excitation and 570 nm emission. As detailed above, compounds were tested for both BRD4 enzyme inhibitory activities and IC50 were determined.

MV4-11 cells = assay: Anticancer activity: Alamar Blue assay, 3-day proliferation; type: cell-based; conditions: AML cell line MV4-11, 72 h, read-out: MV4-11 EC50_μM
Description: Anticancer Activity: Alamar Blue Assay
The impact of the compounds on cancer cell proliferation was determined using the AML cell line MV4-11 (ATCC) in a 3-day proliferation assay. MV4-11 cells were maintained in RPMI supplemented with 10% FBS at 37° C., 5% CO2. For compound testing, MV4-11 cells were plated in a 96-well black bottom plate at a density of 15,000 cells/well in 100 μL culture media and incubated at 37° C. overnight. Compound dilution series were prepared in DMSO via a 3-fold serial dilution from 100 μM to 0.005 μM. The DMSO dilution series were then diluted with media, with the final compound concentrations added to the wells ranging from 10 μM to 0.0005 μM. […] The fluorescent readings from the Alamar Blue assay were normalized to the DMSO treated cells and analyzed using the GraphPad Prism software with sigmoidal curve fitting to obtain EC50.

IC50 (BRD4-BD1) | EC50 (MV4-11 cells; Homo sapiens) | EC50 (MV4-11 cells) | SMILES
2.2 nM | 10 nM |  | CCNC(=O)CC1N=C(c2ccc(Cl)cc2)c2c(sc(C)c2C)-c2cn(C)c(=O)cc21 (racemic) [b, ±2-(4-(4-chlorophenyl)-2,3,9-trimethyl-8-oxo-8,9-dihydro-6H-pyrido[4,3-c]thieno[2,3-e]azepin-6-yl)-N-ethylacetamide]
140 nM |  | 430 nM | CCOC(=O)CC1N=C(c2ccc(Cl)cc2)c2nc(C)sc2-c2cn(C)c(=O)cc21 (racemic) [l, ±Ethyl 2-(4-(4-chlorophenyl)-2,9-dimethyl-8-oxo-8,9-dihydro-6H-pyrido[4,3-c]thiazolo[5,4-e]azepin-6-yl)acetate]
1 nM |  | < 0.5 nM | CCNC(=O)CC1OC(c2ccc(Cl)cc2)c2c(cnn2C)-c2cn(C)c(=O)cc21 (racemic) [ll, ±2-(4-(4-chlorophenyl)-3,9-dimethyl-8-oxo-4,6,8,9-tetrahydro-3H-pyrazolo[4′,3′:5,6]oxepino[4,3-c]pyridin-6-yl)-N-ethylacetamide]
1 nM |  | 140 nM | CCNC(=O)CC1N=C(c2ccc(Cl)cc2)c2nc(C)sc2-c2cn(C)c(=O)cc21 (racemic) [m, ±2-(4-(4-chlorophenyl)-2,9-dimethyl-8-oxo-8,9-dihydro-6H-pyrido[4,3-c]thiazolo[5,4-e]azepin-6-yl)-N-ethylacetamide]
2 nM |  | 17 nM | CCNC(=O)CC1N=C(c2ccc(Cl)cc2)c2cc(OC)ncc2-c2cn(C)c(=O)cc21 (racemic) [t, ±2-(7-(4-chlorophenyl)-9-methoxy-2-methyl-3-oxo-3,5-dihydro-2H-dipyrido[4,3-c:3′,4′-e]azepin-5-yl)-N-ethylacetamide]
10 nM |  | 26 nM | CCOC(=O)CC1N=C(c2ccc(Cl)cc2)c2c(cnn2C)-c2cn(C)c(=O)cc21 (racemic) [w, ±Ethyl 2-(4-(4-chlorophenyl)-3,9-dimethyl-8-oxo-3,6,8,9-tetrahydropyrazolo[3,4-c]pyrido[3,4-e]azepin-6-yl)acetate]
5 nM | 53 nM |  | CCNC(=O)C[C@@H]1N=C(c2ccc(Cl)cc2)c2c(cnn2C)-c2cn(C)c(=O)cc21 [z, (S)-2-(4-(4-chlorophenyl)-3,9-dimethyl-8-oxo-3,6,8,9-tetrahydropyrazolo[3,4-c]pyrido[3,4-e]azepin-6-yl)-N-ethylacetamide]

Second part, the molecule before the results:

SMILES | IC50 (BRD4-BD1) | EC50 (MV4-11 cells; Homo sapiens) | EC50 (MV4-11 cells)
CCNC(=O)CC1OC(c2ccc(Cl)cc2)c2c(sc(C)c2C)-c2cn(C)c(=O)cc21 (racemic) [bb, ±2-(4-(4-chlorophenyl)-2,3,9-trimethyl-8-oxo-4,6,8,9-tetrahydrothieno[2′,3′:5,6]oxepino[4,3-c]pyridin-6-yl)-N-ethylacetamide] | 1 nM |  | < 0.5 nM
Cc1sc2c(c1C)C(c1ccc(Cl)cc1)=NC(CC(N)=O)c1cc(=O)n(C)cc1-2 (racemic) [e, ±2-(4-(4-chlorophenyl)-2,3,9-trimethyl-8-oxo-8,9-dihydro-6H-pyrido[4,3-c]thieno[2,3-e]azepin-6-yl)acetamide] | 2 nM | 7 nM | 
Cc1sc2c(c1C)C(c1ccc(Cl)cc1)OC(CC(N)=O)c1cc(=O)n(C)cc1-2 (racemic) [ee, ±2-(4-(4-chlorophenyl)-2,3,9-trimethyl-8-oxo-4,6,8,9-tetrahydrothieno[2′,3′:5,6]oxepino[4,3-c]pyridin-6-yl)acetamide] | 2 nM | 7 nM | 
Cc1sc2c(c1C)C(c1ccc(Cl)cc1)=NC(CC(=O)Nc1ccc(O)cc1)c1cc(=O)n(C)cc1-2 (racemic) [h, ±2-(4-(4-chlorophenyl)-2,3,9-trimethyl-8-oxo-8,9-dihydro-6H-pyrido[4,3-c]thieno[2,3-e]azepin-6-yl)-N-(4-hydroxyphenyl)acetamide] | 33 nM |  | 
Cc1sc2c(c1C)C(c1ccc(Cl)cc1)OC(CCO)c1cc(=O)n(C)cc1-2 (racemic) [hh, ±4-(4-chlorophenyl)-6-(2-hydroxyethyl)-2,3,9-trimethyl-4,9-dihydrothieno[2′,3′:5,6]oxepino[4,3-c]pyridin-8(6H)-one] | 17 nM |  | 
CCNC(=O)CC1N=C(CC2CC2)c2c(sc(C)c2C)-c2cn(C)c(=O)cc21 (racemic) [r, ±2-(4-(cyclopropylmethyl)-2,3,9-trimethyl-8-oxo-8,9-dihydro-6H-pyrido[4,3-c]thieno[2,3-e]azepin-6-yl)-N-ethylacetamide] | 10 nM |  | 157 nM
CCNC(=O)CC1N=C(c2ccc(C#N)cc2)c2c(sc(C)c2C)-c2cn(C)c(=O)cc21 (stereo in doubt) [k, (R)-2-(4-(4-cyanophenyl)-2,3,9-trimethyl-8-oxo-8,9-dihydro-6H-pyrido[4,3-c]thieno[2,3-e]azepin-6-yl)-N-ethylacetamide] | < 0.5 nM | 25 nM | 
